Measured values reported in PubChem BioAssay (NCI).
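Interpolation was linear, between the two tested concentrations surrounding the appropriate level; five concentrations were tested over 48 hours in 96-well plates. TGI is the concentration that stops growth completely.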

Columns and labels:
Assay in all cases: NCI-60 cell line screen, 48 h
[1] = test system: OVCAR-5 ovarian
[2] = test system: A549 NSCLC
[3] = test system: K-562 leukemia
[4] = test system: MALME-3M melanoma
[5] = test system: OVCAR-8 ovarian
[6] = test system: UACC-62 melanoma
[7] = test system: RXF 393 renal
[8] = test system: HL-60(TB) leukemia
[9] = test system: HS 578T breast
[10] = test system: SF-268 CNS
[11] = test system: HOP-62 NSCLC
[12] = test system: BT-549 breast
[13] = test system: UACC-257 melanoma
[14] = test system: NCI-H460 lung
[15] = test system: HCT-116 colon
[16] = test system: 786-0 renal
[17] = test system: SNB-19 CNS
[18] = test system: SR leukemia
[19] = test system: MDA-N
[20] = test system: NCI/ADR-RES ovarian
[21] = test system: DU-145 prostate
[22] = test system: OVCAR-3 ovarian
[23] = test system: TK-10 renal
[24] = test system: IGROV1 ovarian
[25] = test system: LOX IMVI melanoma
[26] = test system: M14 melanoma
[27] = test system: SK-MEL-2 melanoma
[28] = test system: NCI-H226 lung
[29] = test system: MOLT-4 leukemia
[30] = test system: PC-3 prostate
[31] = test system: SK-MEL-28 melanoma
[32] = test system: SF-539 CNS
[33] = test system: MDA-MB-231 breast
[34] = test system: HOP-92 NSCLC
[35] = test system: UO-31 renal
[36] = test system: ACHN renal
[37] = test system: NCI-H522 lung
[38] = test system: HCT-15 colon
[39] = test system: EKVX NSCLC
[40] = test system: MCF7 breast
[41] = test system: RPMI-8226 leukemia
[42] = test system: SK-MEL-5 melanoma
[43] = test system: OVCAR-4 ovarian
[44] = test system: U251 CNS
[45] = test system: T-47D breast
[46] = test system: HCC-2998 colon
[47] = test system: HT29 colon
[48] = test system: SK-OV-3 ovarian
[49] = test system: COLO 205 colon
[50] = test system: CCRF-CEM leukemia
[51] = test system: MDA-MB-435
[52] = test system: CAKI-1 renal
[53] = test system: SF-295 CNS
[54] = test system: SN12C renal
[55] = test system: KM12 colon
[56] = test system: NCI-H23 lung
[57] = test system: SW-620 colon
[58] = test system: SNB-75 CNS
[59] = test system: A498 renal

## NC(N)=NS(=O)(=O)c1ccc(NNc2c3ccccc3nc3ccccc23)cc1
[1]
  TGI: 48.2 µM
[2]
  TGI: 45.4 µM
[3]
  TGI: 30.9 µM
[4]
  TGI: 32.8 µM
[5]
  TGI: 31.1 µM
[6]
  TGI: 35.3 µM
[7]
  TGI: 36 µM
[8]
  TGI: 43.9 µM
[9]
  TGI: 93.6 µM
[10]
  TGI: 34 µM
[11]
  TGI: 40.1 µM
[12]
  TGI: 28.5 µM
[13]
  TGI: 46.1 µM
[14]
  TGI: 23.4 µM
[15]
  TGI: 32.8 µM
[16]
  TGI: 25.5 µM
[17]
  TGI: 37.3 µM
[18]
  TGI: 13.7 µM
[19]
  TGI: 28.4 µM
[20]
  TGI: 90.7 µM
[21]
  TGI: 21.3 µM
[22]
  TGI: 15.7 µM
[23]
  TGI: 42.7 µM
[24]
  TGI: 81.7 µM
[25]
  TGI: 18.2 µM
[26]
  TGI: 26.8 µM
[27]
  TGI: 37.1 µM
[28]
  TGI: 20.5 µM
[29]
  TGI: 2.85 µM
[30]
  TGI: 25.3 µM
[31]
  TGI: 29.2 µM
[32]
  TGI: 36.7 µM
[33]
  TGI: 37 µM
[34]
  TGI: 31.5 µM
[35]
  TGI: 66.7 µM
[36]
  TGI: 23.1 µM
[37]
  TGI: 17.5 µM
[38]
  TGI: > 100 µM
[39]
  TGI: 34.3 µM
[40]
  TGI: 16.8 µM
[41]
  TGI: 44.9 µM
[42]
  TGI: 22.3 µM
[43]
  TGI: 21.7 µM
[44]
  TGI: 24.2 µM
[45]
  TGI: 41.9 µM
[46]
  TGI: 27.3 µM
[47]
  TGI: 27.2 µM
[48]
  TGI: 40.3 µM
[49]
  TGI: 33.2 µM
[50]
  TGI: 25.4 µM
[51]
  TGI: 33.9 µM
[52]
  TGI: 55.1 µM
[53]
  TGI: 73 µM
[54]
  TGI: 35.6 µM
[55]
  TGI: 28.6 µM
[56]
  TGI: 36.4 µM
[57]
  TGI: 33.7 µM
[58]
  TGI: 50.3 µM

## COC(=O)C1Cc2cc3c(cc2C1=O)CCC3 (stereo not drawn)
[1]
  TGI: > 100 µM
[2]
  TGI: > 100 µM
[3]
  TGI: > 100 µM
[4]
  TGI: > 100 µM
[5]
  TGI: > 100 µM
[6]
  TGI: > 100 µM
[8]
  TGI: > 100 µM
[9]
  TGI: > 100 µM
[10]
  TGI: > 100 µM
[11]
  TGI: > 100 µM
[12]
  TGI: > 100 µM
[13]
  TGI: > 100 µM
[14]
  TGI: > 100 µM
[15]
  TGI: > 100 µM
[16]
  TGI: > 100 µM
[17]
  TGI: > 100 µM
[18]
  TGI: > 100 µM
[19]
  TGI: > 100 µM
[20]
  TGI: > 100 µM
[59]
  TGI: > 100 µM
[21]
  TGI: > 100 µM
[22]
  TGI: > 100 µM
[23]
  TGI: > 100 µM
[24]
  TGI: > 100 µM
[25]
  TGI: > 100 µM
[26]
  TGI: > 100 µM
[27]
  TGI: > 100 µM
[28]
  TGI: > 100 µM
[29]
  TGI: > 100 µM
[30]
  TGI: > 100 µM
[31]
  TGI: > 100 µM
[32]
  TGI: > 100 µM
[33]
  TGI: > 100 µM
[35]
  TGI: > 100 µM
[36]
  TGI: > 100 µM
[37]
  TGI: > 100 µM
[38]
  TGI: > 100 µM
[39]
  TGI: > 100 µM
[40]
  TGI: > 100 µM
[41]
  TGI: > 100 µM
[42]
  TGI: > 100 µM
[43]
  TGI: > 100 µM
[44]
  TGI: > 100 µM
[45]
  TGI: > 100 µM
[46]
  TGI: > 100 µM
[47]
  TGI: > 100 µM
[48]
  TGI: > 100 µM
[49]
  TGI: > 100 µM
[50]
  TGI: > 100 µM
[51]
  TGI: > 100 µM
[52]
  TGI: > 100 µM
[53]
  TGI: > 100 µM
[54]
  TGI: > 100 µM
[55]
  TGI: > 100 µM
[56]
  TGI: > 100 µM
[57]
  TGI: > 100 µM
[58]
  TGI: > 100 µM

## N#Cc1ccc(-c2nc3c(N)ncnc3o2)cc1
[1]
  TGI: > 100 µM
[2]
  TGI: > 100 µM
[3]
  TGI: > 100 µM
[5]
  TGI: > 100 µM
[6]
  TGI: > 100 µM
[7]
  TGI: > 100 µM
[8]
  TGI: > 100 µM
[9]
  TGI: > 100 µM
[10]
  TGI: > 100 µM
[11]
  TGI: > 100 µM
[12]
  TGI: > 100 µM
[13]
  TGI: > 100 µM
[14]
  TGI: > 100 µM
[15]
  TGI: > 100 µM
[16]
  TGI: > 100 µM
[17]
  TGI: > 100 µM
[18]
  TGI: > 100 µM
[19]
  TGI: > 100 µM
[20]
  TGI: > 100 µM
[59]
  TGI: > 100 µM
[21]
  TGI: > 100 µM
[22]
  TGI: > 100 µM
[23]
  TGI: > 100 µM
[24]
  TGI: > 100 µM
[25]
  TGI: > 100 µM
[26]
  TGI: > 100 µM
[27]
  TGI: > 100 µM
[28]
  TGI: > 100 µM
[29]
  TGI: > 100 µM
[30]
  TGI: > 100 µM
[31]
  TGI: > 100 µM
[32]
  TGI: > 100 µM
[33]
  TGI: > 100 µM
[35]
  TGI: > 100 µM
[36]
  TGI: > 100 µM
[37]
  TGI: > 100 µM
[38]
  TGI: > 100 µM
[39]
  TGI: > 100 µM
[40]
  TGI: > 100 µM
[41]
  TGI: > 100 µM
[42]
  TGI: > 100 µM
[45]
  TGI: > 100 µM
[46]
  TGI: > 100 µM
[47]
  TGI: > 100 µM
[49]
  TGI: > 100 µM
[50]
  TGI: > 100 µM
[51]
  TGI: > 100 µM
[52]
  TGI: > 100 µM
[53]
  TGI: > 100 µM
[54]
  TGI: > 100 µM
[55]
  TGI: > 100 µM
[56]
  TGI: > 100 µM
[57]
  TGI: > 100 µM
